Source: US20220024921A1, “1,3,4-OXADIAZOLONE COMPOUND AND PHARMACEUTICAL” (NIPPON SHINYAKU CO., LTD., priority 2018, published 2022)
Structures can show the parent of a compound that is named as a salt.

How the values were obtained:
[1] = molecular target: T1, PIM1 serine/threonine kinase (Homo sapiens, UniProt P11309); test: PIM1 serine/threonine kinase inhibitory effect; type: biochemical; conditions: PIM1 serine/threonine kinase activity; ATP 40 μM; 30° C., 30 minutes
T1 construct: purchased Carna Bioscience, Inc
T1 sequence (P11309 whole entry): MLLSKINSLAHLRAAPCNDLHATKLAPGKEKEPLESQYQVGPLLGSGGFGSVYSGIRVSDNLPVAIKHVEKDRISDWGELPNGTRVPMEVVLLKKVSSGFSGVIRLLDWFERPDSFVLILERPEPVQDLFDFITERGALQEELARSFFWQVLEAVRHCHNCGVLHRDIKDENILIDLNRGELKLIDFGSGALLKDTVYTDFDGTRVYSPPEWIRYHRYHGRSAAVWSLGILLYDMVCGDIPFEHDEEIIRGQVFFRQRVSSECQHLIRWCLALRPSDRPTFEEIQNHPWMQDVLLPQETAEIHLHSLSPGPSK
Outline: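 Recombinant PIM1 (0.15 μg/ml final) with 0.5 μM biotinylated substrate and 40 μM ATP in pH 7.0 HEPES/MgCl2 buffer, 30 min at 30° C. Compound range was 0.01–10000 nM final, n=2. HTRF detection with streptavidin-XL665 and anti-phospho antibody-cryptate, 1 h; IC50 from non-linear regression of the 665/620 ratio.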

[2] = molecular target: PIM1 transgenic cells (Ba/F3) (Homo sapiens, UniProt P11309); test: Proliferation inhibitory effect on PIM1 transgenic cells; type: cell-based, mouse; conditions: proliferation inhibition, 72 hours, Cell Counting Kit-8, read-out: PIM1 IC50
Chain of PIM1 transgenic cells (Ba/F3) (P11309 whole entry, stated change not applied): as the sequence (P11309 whole entry) above
Outline: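 Mouse Ba/F3 pro-B cells were retrovirally transduced with human PIM1 so that their proliferation depends on PIM1. Cells were treated with compound at 1–10000 nM final for 72 h, then read by CCK-8 (OD450−OD650). Inhibition was set against DMSO (0%) and no-cell blank (100%), and IC50 was obtained by two-parameter logistic regression.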

IC50 [1] [nM]	GI50 [2] [nM]	Compound
8.5	100	C[C@H](Nc1cc(-c2n[nH]c(=O)o2)ccc1C(F)(F)F)[C@@H]1CC[C@H](N)C1 [Example 200, 5-[3-({(1S)-1-[(1R,3S)-3-aminocyclopentyl]ethyl}amino)-4-(trifluoromethyl)phenyl]-1,3,4-oxadiazol-2(3H)-one hydrochloride]
1.9	41	CN[C@H]1CC[C@H]([C@H](C)Nc2cc(-c3n[nH]c(=O)o3)cc(F)c2C(F)(F)F)CC1 [Example 190, 5-[3-fluoro-5-({(1S)-1-[(1r,4S)-4-(methylamino)cyclohexyl]ethyl}amino)-4-(trifluoromethyl)phenyl]-1,3,4-oxadiazol-2(3H)-one hydrochloride]
5.8	180	C[C@H](Nc1cc(-c2n[nH]c(=O)o2)ccc1Cl)C1CCNCC1 [Example 77, 5-(4-chloro-3-{[(1S)-1-(piperidin-4-yl)ethyl]amino}phenyl)-1,3,4-oxadiazol-2(3H)-one dihydrochloride]
12	280	C[C@H](Nc1cc(-c2n[nH]c(=O)o2)ccc1C(F)(F)F)[C@H]1CCC[C@@H](N)C1 [Example 194, 5-[3-({(1S)-1-[(1S,3R)-3-aminocyclohexyl]ethyl}amino)-4-(trifluoromethyl)phenyl]-1,3,4-oxadiazol-2(3H)-one hydrochloride]
3.3	37	C[C@H](Nc1cc(-c2n[nH]c(=O)o2)ccc1Cl)[C@@H]1C[C@H](N)C1(C)C [Example 158, 5-[3-({(1S)-1-[(1R,3S)-3-amino-2,2-dimethylcyclobutyl]ethyl}amino)-4-chlorophenyl]-1,3,4-oxadiazol-2(3H)-one hydrochloride]
4.1	200	N[C@H]1CC[C@H](CCc2cc(-c3n[nH]c(=O)o3)ccc2C(F)(F)F)CC1 [Example 27, 5-[3-{2-[(1r,4s)-4-aminocyclohexyl]ethyl}-4-(trifluoromethyl)phenyl]-1,3,4-oxadiazol-2(3H)-one hydrochloride]
1.7	32	C[C@H](Nc1cc(-c2n[nH]c(=O)o2)cc(F)c1C(F)(F)F)C1(C)CCNCC1 [Example 206, 5-[3-fluoro-5-{[(1S)-1-(4-methylpiperidin-4-yl)ethyl]amino}-4-(trifluoromethyl)phenyl]-1,3,4-oxadiazol-2(3H)-one]
19	270	O=c1[nH]nc(-c2ccc(C(F)(F)F)c(NCC3(F)CCNCC3)c2)o1 [Example 108, 5-[3-{[(4-fluoropiperidin-4-yl)methyl]amino}-4-(trifluoromethyl)phenyl]-1,3,4-oxadiazol-2(3H)-one hydrochloride]
3.3	22	C[C@H](Nc1cc(-c2n[nH]c(=O)o2)cc(F)c1C1CC1)[C@H]1CC[C@H](N)CC1 [Example 230, 5-[3-({(1S)-1-[(1r,4S)-4-aminocyclohexyl]ethyl}amino)-4-cyclopropyl-5-fluorophenyl]-1,3,4-oxadiazol-2(3H)-one]
26	610	Cc1ccc(-c2n[nH]c(=O)o2)cc1NC[C@H]1CC[C@H](N)CC1 [Example 67, 5-[3-({[(1r,4r)-4-aminocyclohexyl]methyl}amino)-4-methylphenyl]-1,3,4-oxadiazol-2(3H)-one hydrochloride]
7	200	CCC(Nc1cc(-c2n[nH]c(=O)o2)ccc1C(F)(F)F)C1CCNCC1 (stereo not shown) [Example 56, 5-[3-{[1-(piperidin-4-yl)propyl]amino}-4-(trifluoromethyl)phenyl]-1,3,4-oxadiazol-2(3H)-one hydrochloride]
10	270	O=c1[nH]nc(-c2ccc(C(F)(F)F)c(NC3CC34CCNCC4)c2)o1 (stereo not shown) [Example 42, 5-{3-[(6-azaspiro[2.5]octan-1-yl)amino]-4-(trifluoromethyl)phenyl}-1,3,4-oxadiazol-2(3H)-one hydrochloride]
3	71	CN[C@H]1CC[C@H](CNc2cc(-c3n[nH]c(=O)o3)ccc2C(F)(F)F)CC1 [Example 131, 5-[3-({[(1r,4r)-4-(methylamino)cyclohexyl]methyl}amino)-4-(trifluoromethyl)phenyl]-1,3,4-oxadiazol-2(3H)-one hydrochloride]
15	1600	O=c1[nH]nc(-c2ccc(C(F)(F)F)c(NC[C@H]3CCCNC3)c2)o1 [Example 53, 5-[3-({[(3S)-piperidin-3-yl]methyl}amino)-4-(trifluoromethyl)phenyl]-1,3,4-oxadiazol-2(3H)-one hydrochloride]
53	2400	O=c1[nH]nc(-c2ccc(C(F)(F)F)c(N3CCC4(CC3)CNC4)c2)o1 [Example 16, 5-[3-(2,7-diazaspiro[3.5]nonan-7-yl)-4-(trifluoromethyl)phenyl]-1,3,4-oxadiazol-2(3H)-one hydrochloride]
2	28	C[C@H](Nc1cc(-c2n[nH]c(=O)o2)cc(Br)c1Cl)[C@H]1CC[C@H](N)CC1 [Example 171, 5-[3-({(1S)-1-[(1r,4S)-4-aminocyclohexyl]ethyl}amino)-5-bromo-4-chlorophenyl]-1,3,4-oxadiazol-2(3H)-one dihydrochloride]
21	440	O=c1[nH]nc(-c2ccc(C(F)(F)F)c(NC[C@@H]3CCNC[C@H]3F)c2)o1 [Example 127, 5-[3-({[(3S,4S)-3-fluoropiperidin-4-yl]methyl}amino)-4-(trifluoromethyl)phenyl]-1,3,4-oxadiazol-2(3H)-one hydrochloride]
6.6	210	CC1CN(C(C)C2CCC(N)CC2)c2cc(-c3n[nH]c(=O)o3)cc(F)c2O1 [Example 252, 5-[(2S)-4-{(1S)-1-[(1r,4S)-4-aminocyclohexyl]ethyl}-8-fluoro-2-methyl-3,4-dihydro-2H-1,4-benzoxazin-6-yl]-1,3,4-oxadiazol-2(3H)-one hydrochloride]
290	2600	O=c1[nH]nc(-c2ccc(C(F)(F)F)c(N[C@@H]3CCC34CCNCC4)c2)o1 [Example 46, 5-[3-{[(1R)-7-azaspiro[3.5]nonan-1-yl]amino}-4-(trifluoromethyl)phenyl]-1,3,4-oxadiazol-2(3H)-one hydrochloride]
59	3600	NCC1CCN(c2cc(-c3n[nH]c(=O)o3)ccc2Cl)CC1 [Example 6, 5-{3-[4-(aminomethyl)piperidin-1-yl]-4-chlorophenyl}-1,3,4-oxadiazol-2(3H)-one]
39	870	C[C@@H](CN)Oc1ccc(-c2cc(-c3n[nH]c(=O)o3)ccc2C(F)(F)F)cc1 [Example 24, 5-[4′-{[(2S)-1-aminopropan-2-yl]oxy}-6-(trifluoromethyl)[1,1′-biphenyl]-3-yl]-1,3,4-oxadiazol-2(3H)-one hydrochloride]
2.6	47	CN[C@H]1C[C@@H]([C@H](C)Nc2cc(-c3n[nH]c(=O)o3)ccc2C(F)(F)F)C1 [Example 192, 5-[3-({(1S)-1-[(1s,3R)-3-(methylamino)cyclobutyl]ethyl}amino)-4-(trifluoromethyl)phenyl]-1,3,4-oxadiazol-2(3H)-one hydrochloride]
15	600	O=c1[nH]nc(-c2ccc(C(F)(F)F)c(N3CCC4(CCNCC4)CC3)c2)o1 [Example 15, 5-[3-(3,9-diazaspiro[5.5]undecan-3-yl)-4-(trifluoromethyl)phenyl]-1,3,4-oxadiazol-2(3H)-one hydrochloride]
1.7	45	C[C@H](Nc1cc(-c2n[nH]c(=O)o2)cc(Br)c1Cl)[C@H]1C[C@@H](N)C1 [Example 182, 5-[3-({(1S)-1-[(1s,3R)-3-aminocyclobutyl]ethyl}amino)-5-bromo-4-chlorophenyl]-1,3,4-oxadiazol-2(3H)-one hydrochloride]
14	3100	CN(CC1CCNCC1)c1cc(-c2n[nH]c(=O)o2)ccc1C(F)(F)F [Example 51, 5-[3-{methyl[(piperidin-4-yl)methyl]amino}-4-(trifluoromethyl)phenyl]-1,3,4-oxadiazol-2(3H)-one hydrochloride]
1.1	36	Cc1cc(-c2n[nH]c(=O)o2)cc(N[C@@H](C)C2CCNCC2)c1Cl [Example 84, 5-(4-chloro-3-methyl-5-{[(1S)-1-(piperidin-4-yl)ethyl]amino}phenyl)-1,3,4-oxadiazol-2(3H)-one dihydrochloride]
1.5	210	C[C@H](Nc1cc(-c2n[nH]c(=O)o2)cc([N+](=O)[O-])c1Cl)C1CCNCC1 [Example 91, 5-(4-chloro-3-nitro-5-{[(1S)-1-(piperidin-4-yl)ethyl]amino}phenyl)-1,3,4-oxadiazol-2(3H)-one hydrochloride]
8.1	140	CCN[C@H]1C[C@@H]([C@H](C)Nc2cc(-c3n[nH]c(=O)o3)ccc2C(F)(F)F)C1 [Example 195, 5-[3-({(1S)-1-[(1s,3R)-3-(ethylamino)cyclobutyl]ethyl}amino)-4-(trifluoromethyl)phenyl]-1,3,4-oxadiazol-2(3H)-one hydrochloride]
19	280	CN(C[C@H]1CC[C@H](N)CC1)c1cc(-c2n[nH]c(=O)o2)ccc1C(F)(F)F [Example 130, 5-{3-[{[(1r,4r)-4-aminocyclohexyl]methyl}(methyl)amino]-4-(trifluoromethyl)phenyl}-1,3,4-oxadiazol-2(3H)-one hydrochloride]
